Source: US9192589B2, “Chalcones as enhancer of antimicrobial agents” (priority 2009, dated 2015)
Read-outs that look alike come from different tables or passages of the source.

Experiments:
[1] = test system: Streptococcus mutans, Actinomyces viscosus and Fusobacterium nucleatum; assay: Fold reduction in MIC over the three oral bacteria; format: cell-based; conditions: in combination with CK-4; over S. mutans, A. viscosus and F. nucleatum
From the text: (§1) The checkerboard method is the most frequently used method to access the antimicrobial combinations in vitro. The term “checkerboard” refers to the pattern (of tubes or microtiter plate wells) formed by multiple dilutions of two drugs being tested (Eliopoulos G M, Moellering R C. Antimicrobial Combinations, in: Antibiotics in Laboratory Medicine: USA: Williams & Wilkins). In the present study the checkerboard consisted of columns in which each tube (or well) contains the same amount of the standard drug (antibacterial/antifungal/anti-TB/antiviral) being diluted along the x-axis and rows in which each tube (or well) contains the same amount of the potentiator being diluted on the y-axis. As a result each square in the checkerboard (which represents one tube/well or plate) contained a unique combination of the standard drug and potentiator. The concentration range of standard drug in the present study was 64 μg/ml to 0.03 μg/ml, whereas the potentiator was tested in the range of 500 μg/ml to 0.2 μg/ml. This checkerboard technique can be performed with liquid or semisolid (agar) media.
(§2) In the agar method the agar (Mueller Hinton agar, Middlebrook 7H10 agar) was autoclaved and allowed to cool to 55° C. to 50° C. The combination of the standard drug and the potentiator was added to the agar. Serial two fold dilutions of each of standard drug and the potentiator were prepared in appropriate solvents. In order to maintain the desired concentrations of both agar and drugs, and to rule out the effect of solvent, the volume of solvent (containing standard drug or potentiator) added to agar was kept small (i.e. ≦5% of the total volume). After the agar plates have been poured and allowed to dry, the bacteria to be tested were applied to the surface of agar with a replicating device designed to deliver a standard inoculum (approx 10^4 cfu/spot). The plates were incubated at 37° C. for 24 hrs (3 weeks in case of Mycobacterium tuberculosis).
(§3) The above-mentioned checkerboard was also performed with liquid media in a microtiter plate format. This method was used to study the combination of antibacterial/antifungal/antiviral drugs with potentiator.
(§4) Minimum Inhibitory Concentration (MIC) of triclosan alone and in combination with the above mentioned chalcone compound was performed against Streptococcus mutans, Actinomyces viscosus and Fusobacterium nucleatum, using method described in the study design.
Minimum Inhibitory Concentration (MIC) of magnolol alone and in combination with the above mentioned chalcone compound was performed against Streptococcus mutans, Actinomyces viscosus and Fusobacterium nucleatum, using method described in the study design. […]

Fusobacterium nucleatum = assay: MIC of antibacterial agents alone and in combination with CK-4; format: cell-based; conditions: F. nucleatum
From the text: as §1, §2, §3, §4
(§5) Minimum Inhibitory Concentration (MIC) of magnolol alone and in combination with the above mentioned chalcone compound was performed against Streptococcus mutans, Actinomyces viscosus and Fusobacterium nucleatum, using method described in the study design.
(§6) Minimum Inhibitory Concentration (MIC) of honokiol alone and in combination with the above mentioned chalcone compound was performed against Streptococcus mutans, Actinomyces viscosus and Fusobacterium nucleatum, using method described in the study design.

Actinomyces viscosus = assay: as above; format: cell-based; conditions: A. viscosus
From the text: as §1, §2, §3, §4, §5, §6

Streptococcus mutans = assay: as above; format: cell-based; conditions: S. mutans
From the text: as §1, §2, §3, §4, §5, §6

A. Viscosus biofilm = assay: Inhibition of single species biofilm formation (BEC50, crystal violet); format: cell-based, Actinomyces viscosus; set-up: unit not given here; conditions: 24 hours; for BEC50 alone: agent alone
Experimental: Actinomyces viscosus (ATCC#43146) was grown in trypticase soy broth supplemented with 0.6% yeast extract (TSB-YE) at 37° C., static culture. For mixed species assays, the source of bacteria was a continuous culture chemostat inoculated with A. viscosus, Lactobacillus casei (ATCC #334), Streptococcus oxalis (ATCC #35037), Fusobacterium nucleatum (ATCC #10953), and Veilonella parvula (ATCC #17745). This mixed culture was maintained in a specialized complex medium in a continuous culture chemostat at 37° C.
To assess the bioenhancing ability of CK-4, inhibition of single species biofilm formation tests were conducted. Actives of interest were plated in the first column of a sterile 384-well culture plate and serial twofold dilutions were performed across the plate in 0.5× TSB. First generation cultures of A. Viscosus bacteria were grown overnight in TSB-YE. Cultures were diluted to an OD610˜0.2 in 0.5×TSB and plated in the wells containing serial dilutions of actives. Plates were incubated for 24 hours at 37° C. to allow growth and biofilm formation to occur.
Following incubation, supernatants were removed from the plate and remaining biofilms were stained with 0.03% Grain's crystal violet. Stained plates were read on a Perkin Elmer EnVision microplate reader for absorbance at 590 nm.

[2] = test system: Staphylococcus aureus 1199B (NorA overexpressing); assay: Checkerboard MIC of ciprofloxacin alone and in combination with chalcone; format: cell-based; conditions: for MIC: Staphylococcus aureus
[3] = test system: Staphylococcus aureus ATCC 29213; assay: Systemic infection model of mice, ED50 of ciprofloxacin; format: in vivo, Swiss albino mice; conditions: ATCC29213, iv, after seven days of observation
Experimental: Efficacy testing will be done using standard procedures. Primary efficacy evaluation may be done using the murine septicemia model (Yun et al. Journal of Antimicrob. Chemother., 2002, 46: 3071-3074). In this model a supra-lethal dose of bacteria is used to challenge the rodents. Treatment is initiated, varying either or both time(s) of treatment and dose of antibiotic. In these experiments both the antibiotic and the efflux pump inhibitor doses are varied.
The study was conducted to see the in vivo response of ciprofloxacin in combination with the above-mentioned efflux pump inhibitor. The Swiss albino mice were infected intravenously with Staphylococcus aureus ATCC 29213 (10^7 CFU/mouse). The infected mice were divided in groups and each group consisted of 6 mice. The treatment consisted of one dose immediately after the infection followed by the next dose after a gap of 6 hrs. The result was recorded as number of survivals each day.

[4] = test system: Staphylococcus aureus SA-K2191 (MsrA overexpressing); assay: Checkerboard MIC of erythromycin alone and in combination with chalcone; format: cell-based; conditions: for MIC: Staphylococcus aureus
[5] = test system: Staphylococcus aureus SA-K2192 (TetK overexpressing); assay: Checkerboard MIC of tetracycline alone and in combination with chalcone; format: cell-based
[6] = Fusobacterium nucleatum, agent alone, read-out: MIC
[7] = Actinomyces viscosus, agent alone, read-out: MIC
[8] = Streptococcus mutans, agent alone, read-out: MIC
[9] = in combination with CK-4 at 50 μg/ml
[10] = in combination with CK-14 at 50 μg/ml

Compound | reduction in MIC in combination with chalcone compound [1] | MIC (Fusobacterium nucleatum; with CK-4 6.25 μg/ml) | MIC (Fusobacterium nucleatum; with CK-4 12.5 μg/ml) | MIC (Fusobacterium nucleatum; with CK-4 25 μg/ml) | MIC (Fusobacterium nucleatum; [6]) | MIC (Actinomyces viscosus; with CK-4 6.25 μg/ml) | MIC (Actinomyces viscosus; with CK-4 12.5 μg/ml) | MIC (Actinomyces viscosus; with CK-4 25 μg/ml) | MIC (Actinomyces viscosus; [7]) | MIC (Streptococcus mutans; with CK-4 6.25 μg/ml) | MIC (Streptococcus mutans; with CK-4 12.5 μg/ml) | MIC (Streptococcus mutans; with CK-4 25 μg/ml) | MIC (Streptococcus mutans; [8]) | BEC50 alone (A. Viscosus biofilm) | BEC50 with CK-4 (A. Viscosus biofilm) | further results
CCCCc1ccc(O)c(-c2cc(CCCC)ccc2O)c1 [Butyl magnolol, 5,5′-dibutylbiphenyl-2,2′-diol] | Two to four-fold | 2.0 µg/mL | 2.0 µg/mL | 1.0 µg/mL | 2 µg/mL | 4.0 µg/mL | 2.0 µg/mL | 1.0 µg/mL | 4 µg/mL | 4.0 µg/mL | 2.0 µg/mL | 1.0 µg/mL | 4 µg/mL | 0.65 | 0.24 | 
C=CCc1ccc(O)c(-c2ccc(O)c(CC=C)c2)c1 [Honokiol, honokiol] | Four to eight-fold | 1.0 µg/mL | 1.0 µg/mL | 0.5 µg/mL | 2 µg/mL | 2.0 µg/mL | 1.0 µg/mL | 0.5 µg/mL | 4 µg/mL | 2.0 µg/mL | 1.0 µg/mL | 0.5 µg/mL | 4 µg/mL | 5.21 | 2.60 | 
C=CCc1ccc(O)c(-c2cc(CC=C)ccc2O)c1 [Magnolol, magnolol] | Up to sixteen-fold | 1.0 µg/mL | 1.0 µg/mL | 0.5 µg/mL | 2 µg/mL | 1.0 µg/mL | 0.5 µg/mL | 0.25 µg/mL | 4 µg/mL | 2.0 µg/mL | 1.0 µg/mL | 0.5 µg/mL | 4 µg/mL | 3.91 | 1.95 | 
CCCc1ccc(O)c(-c2ccc(O)c(CCC)c2)c1 [Propyl Honokiol, propyl honokiol] |  |  |  |  |  |  |  |  |  |  |  |  |  | 0.49 | 0.65 | 
O=C([O-])CC(O)(CC(=O)[O-])C(=O)[O-].O=C([O-])CC(O)(CC(=O)[O-])C(=O)[O-].[Zn+2].[Zn+2].[Zn+2] [Zinc Citrate] |  |  |  |  |  |  |  |  |  |  |  |  |  | 41.67 | 20.83 | 
O=C(O)c1cn(C2CC2)c2cc(N3CCNCC3)c(F)cc2c1=O [ciprofloxacin] |  |  |  |  |  |  |  |  |  |  |  |  |  |  |  | MIC ([2]; read-out: MIC (μg/ml) of ciprofloxacin for Staphylococcus aureus 1199B, ciprofloxacin alone): 8 µg/mL; MIC ([2]; read-out: MIC (μg/ml) of ciprofloxacin for Staphylococcus aureus 1199B, in combination with CK-4 6.25 μg/ml): 4 µg/mL; MIC ([2]; read-out: MIC (μg/ml) of ciprofloxacin for Staphylococcus aureus 1199B, in combination with CK-4 12.5 μg/ml): 2 µg/mL; MIC ([2]; read-out: MIC (μg/ml) of ciprofloxacin for Staphylococcus aureus 1199B, in combination with CK-4 25.0 μg/ml): 1 µg/mL; MIC ([2]; read-out: MIC (μg/ml) of ciprofloxacin for Staphylococcus aureus 1199B, in combination with CK-4 50.0 μg/ml): 0.5 µg/mL; reduction in MIC of ciprofloxacin [2, 9]: Up to sixteen-fold; reduction in MIC of ciprofloxacin [2, 10]: Up to eight-fold; ED50 ([3]; ciprofloxacin alone, mice infected i.v. with S. aureus ATCC 29213, two doses 6 hrs apart): 9.2 mg/kg; ED50 ([3]; in combination with the CK-4, mice infected i.v. with S. aureus ATCC 29213, two doses 6 hrs apart): 5.86 mg/kg
CC[C@H]1OC(=O)[C@H](C)[C@@H](O[C@H]2C[C@@](C)(OC)[C@@H](O)[C@H](C)O2)[C@H](C)[C@@H](O[C@@H]2O[C@H](C)C[C@H](N(C)C)[C@H]2O)[C@](C)(O)C[C@@H](C)C(=O)[C@H](C)[C@@H](O)[C@]1(C)O [erythromycin] |  |  |  |  |  |  |  |  |  |  |  |  |  |  |  | MIC ([4]; read-out: MIC (μg/ml) of erythromycin for Staphylococcus aureus SA-K2191, erythromycin alone): 64 µg/mL; MIC ([4]; read-out: MIC (μg/ml) of erythromycin for Staphylococcus aureus SA-K2191, in combination with CK-4 6.25 μg/ml): 64 µg/mL; MIC ([4]; read-out: MIC (μg/ml) of erythromycin for Staphylococcus aureus SA-K2191, in combination with CK-4 12.5 μg/ml): 32 µg/mL; MIC ([4]; read-out: MIC (μg/ml) of erythromycin for Staphylococcus aureus SA-K2191, in combination with CK-4 25.0 μg/ml): 16 µg/mL; MIC ([4]; read-out: MIC (μg/ml) of erythromycin for Staphylococcus aureus SA-K2191, in combination with CK-4 50.0 μg/ml): 8 µg/mL; reduction in MIC of erythromycin [4, 9]: Up to eight-fold; reduction in MIC of erythromycin [4, 10]: Up to four-fold
CN(C)[C@@H]1C(O)=C(C(N)=O)C(=O)[C@@]2(O)C(O)=C3C(=O)c4c(O)cccc4[C@@](C)(O)[C@H]3C[C@@H]12 [tetracycline] |  |  |  |  |  |  |  |  |  |  |  |  |  |  |  | MIC ([5]; read-out: MIC (μg/ml) of tetracycline for Staphylococcus aureus SA-K2192, in combination with CK-4 6.25 μg/ml): 32 µg/mL; MIC ([5]; read-out: MIC (μg/ml) of tetracycline for Staphylococcus aureus SA-K2192, in combination with CK-4 12.5 μg/ml): 16 µg/mL; MIC ([5]; read-out: MIC (μg/ml) of tetracycline for Staphylococcus aureus SA-K2192, in combination with CK-4 25.0 μg/ml): 8 µg/mL; MIC ([5]; read-out: MIC (μg/ml) of tetracycline for Staphylococcus aureus SA-K2192, in combination with CK-4 50.0 μg/ml): 4 µg/mL; MIC ([5]; read-out: MIC (μg/ml) of tetracycline for Staphylococcus aureus SA-K2192, tetracycline alone): 32 µg/mL
Catechin |  |  |  |  |  |  |  |  |  |  |  |  |  | 26.04 | 26.04 | 
